In assay [1] the target is T1, VEGFR2 kinase (Homo sapiens, UniProt P35968).
T1 construct: VEGFR2 kinase domain alone, Millipore; purchased Millipore
Description: VEGFR2 radiometric kinase assay. The class given is biochemical. To be noted: given as bound; 100 μM ATP; read-out: Inhibition activity, IC50 VEGFR2. The procedure: (§1) The inhibitory activity against VEGFR2 or EGFR was determined by radiometric kinase assay. The experimental condition for VEGFR2 kinase assay was 6.25 ng of recombinant VEGFR2 kinase (VEGFR2 kinase domain alone, Millipore), 5 μg of substrate Poly(Glu-Tyr) (4:1, Sigma), kinase reaction buffer (20 mM MOPS pH 7.0, 1 mM EDTA, 5% glycerol, 0.01% Brij-35, 0.1% β-mercaptoethanol, 1 mg/mL BSA, 100 μM ATP, and 0.1 μCi per well [^33P] ATP (specific activity 3000 Ci/mmol, PerkinElmer)), and the test compound (diluted with 4% DMSO) or DMSO alone (as a control) in a final volume of 25 μL. Reactions were incubated at 30° C. for 30 min and stopped by adding 3% phosphoric acid, harvested onto a 96-well GF/B UniFilter (PerkinElmer) using a unifilter harvester (PerkinElmer), and counted with a TopCount microplate scintillation counter (PerkinElmer).
(§2) Results of inhibition activity against VEGFR2 and EGFR kinases by the selected compounds, which have IC50 values on B-Raf kinase <300 nM, are summarized in Table 6.

In assay [2] the test system is A375 melanoma cells and COLO205 colon cancer cells. Briefly: Cell proliferation assay (CellTiter-96). The class given is cell-based. To be noted: Homo sapiens; A375 or COLO205, 72 hours treatment; read-out: Cytotoxicity IC50 for A375 or COLO205. The procedure: The anti-proliferative activities of compounds of formula (I) against B-Raf(V600E) mutant human cancer cell lines, A375 melanoma cells and COLO205 colon cancer cells, were measured using the CellTiter™-96 assay kit (Promega) following the manufacturer's instructions. In brief, the cells were maintained in DMEM containing 10% FCS and incubated at 37° C. in 5% CO2 atmosphere. Cells were plated at a density of 2,000 cells/well on a 96-well plate and incubated for 24 h. Then, these cells were treated with different concentrations of the test compounds and incubated for another 72 hours. At the end of the incubation, CellTiter™-96 Aqueous One Solution Reagent (Promega) was added and incubated for another 4.0 hours. Cell viability was determined by measuring absorbance at 490 nm using EMax® microplate reader (Molecular Devices). Data were processed and analyzed using GraphPad Prism.

Assay [3] addresses T2, B-Raf kinase (Homo sapiens, UniProt P15056).
T2 construct: purchased Upstate Biotechnology
Briefly: B-Raf kinase assay ([33P] incorporation into MEK1(K97R)). To be noted: class symbols; 8 μM ATP; read-out: IC50 against B-Raf kinase. The class given is biochemical. Here is the method: (§3) Inhibition of kinase activity by a test compound disclosed herein was estimated by quantifying the amount of [^33P] incorporation of a substrate in the presence of the test compound. Standard assay conditions were 5 ng of recombinant B-Raf kinase (Upstate Biotechnology) with 500 ng MEK1(K97R) in assay buffer (8 μM ATP, 0.5 μCi [^33P]ATP (specific activity 3000 Ci/mmol, PerkinElmer), 50 mM Tris/HCl (pH7.5), and 1 mM EGTA, 1 mM Na3VO4, 1% 2-mercaptoethanol, 0.1% Brij 35, and 0.2 mg/ml BSA) in a final volume of 25 μL. Reactions were incubated at 30° C. for 30 min and stopped by adding 3% phosphoric acid, harvested onto a 96-well GF/B UniFilter (PerkinElmer) using a unifilter harvester (PerkinElmer), and counted with a TopCount microplate scintillation counter (PerkinElmer). The IC50 values of inhibitors were determined after carrying out assays at 3-fold serially diluted concentrations of each compound in duplication. The results were analyzed using linear regression software (GraphPad Prism 4; GraphPad Software Inc.).

Assay [4] addresses T3, B-Raf(V600E) kinase (Homo sapiens, UniProt P15056, V600E).
T3 construct: purchased Upstate Biotechnology
Briefly: B-Raf(V600E) kinase assay ([33P] incorporation into MEK1(K97R)). It is filed as biochemical. To be noted: class symbols; 8 μM ATP; read-out: IC50 against B-Raf(V600E) kinase. The procedure:
as §3, with “B-Raf(V600E)” for “B-Raf”, “MEK1 (K97R)” for “MEK1(K97R)”, “[^33P] ATP” for “[^33P]ATP”, “BSA), and the test compound (diluted with 4% DMSO) or DMSO alone (as a control)” for “BSA)”

For assay [5], the target named is T4, EGFR kinase (Homo sapiens, UniProt P00533).
T4 construct: EGFR kinase domain alone, Millipore; purchased Millipore
Briefly: EGFR radiometric kinase assay. Particulars: 100 μM ATP, read-out: Inhibition activity, IC50 EGFR. The class given is biochemical. The procedure: as §1
The experimental condition for EGFR kinase assay was 25 ng of EGFR kinase (EGFR kinase domain alone, Millipore), 3 μg of the substrate poly(Glu-Tyr), (Sigma), kinase reaction buffer (10 mM MOPS pH 7.0, 0.3 mM EDTA, 0.5% glycerol, 0.001% Brij-35, 10 mM MnCl2, 0.1 mg/ml BSA, 100 μM ATP, and 0.1 μCi per well [^33P]ATP (specific activity 3000 Ci/mmol, PerkinElmer)), and the test compound (diluted with 4% DMSO) or DMSO (as a control) in a final volume of 25 μL. Reactions were incubated at 30° C. for 30 min and stopped by adding 3% phosphoric acid, harvested onto a 96-well GF/B UniFilter (PerkinElmer) using a unifilter harvester (PerkinElmer), and counted with a TopCount microplate scintillation counter (PerkinElmer).
as §2

The target in assay [6] is T5, C-Raf kinase (Homo sapiens, UniProt P04049).
T5 construct: purchased Upstate Biotechnology
Briefly: C-Raf kinase assay ([33P] incorporation into MEK1(K97R)). The class given is biochemical. To be noted: class symbols; 8 μM ATP; read-out: IC50 against C-Raf kinase. The procedure: as §3, with “were 2” for “were 5”, “recombinant C-Raf” for “recombinant B-Raf”, “ng MEK1 (K97R)” for “ng MEK1(K97R)”, “μCi [^33P] ATP” for “μCi [^33P]ATP”, “mg/ml BSA), and the test compound (diluted with 4% DMSO) or DMSO alone (as a control)” for “mg/ml BSA)”

Like-named read-outs stand apart in the source and are kept apart here.

T4 sequence (P00533 712-979 limits assumed): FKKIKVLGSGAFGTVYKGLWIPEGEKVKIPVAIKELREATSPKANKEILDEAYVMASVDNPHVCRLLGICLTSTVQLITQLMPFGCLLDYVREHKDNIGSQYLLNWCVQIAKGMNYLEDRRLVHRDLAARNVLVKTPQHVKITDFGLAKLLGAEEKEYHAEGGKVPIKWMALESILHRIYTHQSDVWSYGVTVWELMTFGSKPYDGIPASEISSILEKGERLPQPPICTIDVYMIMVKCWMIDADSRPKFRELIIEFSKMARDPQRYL
T1 sequence (P35968 834-1162 limits assumed): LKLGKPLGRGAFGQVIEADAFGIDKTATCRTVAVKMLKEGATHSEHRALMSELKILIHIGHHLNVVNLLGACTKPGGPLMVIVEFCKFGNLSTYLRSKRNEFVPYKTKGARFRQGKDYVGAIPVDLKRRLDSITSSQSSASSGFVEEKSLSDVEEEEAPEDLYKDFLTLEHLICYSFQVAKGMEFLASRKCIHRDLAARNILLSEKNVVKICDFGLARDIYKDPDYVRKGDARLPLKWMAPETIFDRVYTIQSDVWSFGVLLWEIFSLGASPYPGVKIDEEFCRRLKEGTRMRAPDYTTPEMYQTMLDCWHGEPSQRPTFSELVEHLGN
T5 sequence (P04049 whole entry): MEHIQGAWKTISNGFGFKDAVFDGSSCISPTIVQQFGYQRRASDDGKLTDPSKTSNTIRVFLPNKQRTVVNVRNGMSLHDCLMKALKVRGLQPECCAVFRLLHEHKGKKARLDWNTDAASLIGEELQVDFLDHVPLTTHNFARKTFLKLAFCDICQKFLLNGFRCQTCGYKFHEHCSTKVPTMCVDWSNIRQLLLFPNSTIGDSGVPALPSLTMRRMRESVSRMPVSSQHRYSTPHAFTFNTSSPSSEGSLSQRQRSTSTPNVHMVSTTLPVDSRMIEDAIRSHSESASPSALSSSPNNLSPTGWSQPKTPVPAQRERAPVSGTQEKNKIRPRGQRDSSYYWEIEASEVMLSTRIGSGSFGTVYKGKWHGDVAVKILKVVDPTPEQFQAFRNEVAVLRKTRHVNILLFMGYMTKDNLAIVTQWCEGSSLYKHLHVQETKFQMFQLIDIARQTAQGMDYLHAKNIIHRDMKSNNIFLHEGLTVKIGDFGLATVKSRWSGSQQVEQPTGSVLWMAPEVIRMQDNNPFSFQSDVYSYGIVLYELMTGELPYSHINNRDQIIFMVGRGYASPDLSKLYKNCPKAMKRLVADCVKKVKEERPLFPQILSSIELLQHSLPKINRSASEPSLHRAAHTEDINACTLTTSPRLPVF
T2 sequence (P15056 whole entry): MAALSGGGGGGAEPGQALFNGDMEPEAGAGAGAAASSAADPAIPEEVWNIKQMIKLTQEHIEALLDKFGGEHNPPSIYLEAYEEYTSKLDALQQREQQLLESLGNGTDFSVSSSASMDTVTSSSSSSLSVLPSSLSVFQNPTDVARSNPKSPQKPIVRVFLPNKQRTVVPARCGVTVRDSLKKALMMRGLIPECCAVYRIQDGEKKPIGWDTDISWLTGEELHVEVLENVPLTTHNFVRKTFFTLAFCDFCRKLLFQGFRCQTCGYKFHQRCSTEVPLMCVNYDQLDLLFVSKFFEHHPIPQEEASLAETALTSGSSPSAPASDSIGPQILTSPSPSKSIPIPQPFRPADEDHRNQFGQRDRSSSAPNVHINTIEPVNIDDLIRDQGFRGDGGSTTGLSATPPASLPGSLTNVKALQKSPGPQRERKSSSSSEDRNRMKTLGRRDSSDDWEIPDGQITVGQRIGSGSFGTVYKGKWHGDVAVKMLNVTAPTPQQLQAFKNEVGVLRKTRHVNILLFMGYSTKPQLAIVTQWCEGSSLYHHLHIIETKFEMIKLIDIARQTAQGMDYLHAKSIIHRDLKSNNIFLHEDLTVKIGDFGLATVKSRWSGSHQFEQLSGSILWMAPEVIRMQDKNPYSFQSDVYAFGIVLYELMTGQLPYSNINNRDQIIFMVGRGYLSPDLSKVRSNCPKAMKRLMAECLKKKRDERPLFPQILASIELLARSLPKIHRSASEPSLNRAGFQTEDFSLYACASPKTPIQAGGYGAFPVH
T3 sequence (P15056 whole entry V600E): as the sequence (P15056 whole entry) above, with V600E counted along it

On to `CCCS(=O)(=O)Nc1ccc(F)c(Nc2ncnc3cc(F)c(-c4cccnc4F)cc23)c1F` [compound 7, N-(2,4-difluoro-3-(7-fluoro-6-(2-fluoropyridin-3-yl)quinazolin-4-ylamino)phenyl)propane-1-sulfonamide], for which the half-maximal inhibitory concentration (IC50) in assay [1] was more than 3 µM; in assay [2] it was less than 2 µM; in assay [3] it was less than 0.3 µM; in assay [4], less than 0.3 µM; in assay [5] (given as bound) it was more than 3 µM; in assay [6], less than 0.3 µM.

`CCCS(=O)(=O)Nc1ccc(F)c(Nc2ccnc3ccc(-c4cccnc4F)cc23)c1F` [compound 13, N-(2,4-difluoro-3-(6-(2-fluoropyridin-3-yl)-quinolin-4-ylamino)phenyl)propane-1-sulfonamide]: the IC50 was more than 3 µM in assay [1]; less than 2 µM in assay [2]; less than 0.3 µM in assay [3]; less than 0.3 µM in assay [4]; more than 3 µM in assay [5] (given as bound); less than 0.3 µM in assay [6].

In the case of `CCCS(=O)(=O)Nc1ccc(F)c(Nc2ncnc3ccc(-c4cccc(OC)n4)cc23)c1F` [compound 37, N-(2,4-difluoro-3-(6-(6-methoxypyridin-2-yl)quinazolin-4-ylamino)phenyl)propane-1-sulfonamide], the concentration for half-maximal inhibition (IC50) in assay [1] was more than 3 µM; in assay [2] it was less than 2 µM; in assay [3] it was less than 0.3 µM; in assay [4], less than 0.3 µM; in assay [5] (class symbols), 0.3 to 1 µM; in assay [6], 0.3 to 1 µM.

In the case of `CCCS(=O)(=O)Nc1ccc(F)c(Nc2ncnc3ccc(-c4ccnc(OC)c4)cc23)c1F` [compound 31, N-(2,4-difluoro-3-(6-(2-methoxypyridin-4-yl)quinazolin-4-ylamino)phenyl)propane-1-sulfonamide], the 50% inhibitory concentration (IC50) in assay [1] was more than 3 µM; in assay [2], less than 2 µM; in assay [3], less than 0.3 µM; in assay [4], less than 0.3 µM; in assay [5] (class symbols) it was 0.3 to 1 µM; in assay [6], less than 0.3 µM.

On to `CCCS(=O)(=O)Nc1ccc(F)c(Nc2ncnc3ccc(-c4cccc(OCCOC)n4)cc23)c1F` [compound 38, N-(2,4-difluoro-3-(6-(6-(2-methoxyethoxy)pyridin-2-yl)quinazolin-4-ylamino)phenyl)propane-1-sulfonamide], for which the IC50 in assay [1] is more than 3 µM; in assay [2] it was less than 2 µM; in assay [3], less than 0.3 µM; in assay [4], less than 0.3 µM; in assay [5] (class symbols), 1 to 3 µM; in assay [6] it was 0.3 to 1 µM.

Turning to `CCCCS(=O)(=O)Nc1ccc(F)c(Nc2ncnc3ccc(-c4cccnc4F)cc23)c1F` [compound 18, N-(2,4-difluoro-3-(6-(2-fluoropyridin-3-yl)quinazolin-4-ylamino)phenyl)butane-1-sulfonamide], the half-maximal inhibitory concentration (IC50) in assay [1] was more than 3 µM; in assay [2] it was less than 2 µM; in assay [3], less than 0.3 µM; in assay [4], less than 0.3 µM; in assay [5] (given as bound) it was more than 3 µM; in assay [6], less than 0.3 µM.

For `CCCS(=O)(=O)Nc1ccc(F)c(Nc2ncnc3cc(OCCN4CCOCC4)c(-c4cccnc4F)cc23)c1F` [compound 8, N-(2,4-difluoro-3-(6-(2-fluoropyridin-3-yl)-7-(2-morpholinoethoxy)quinazolin-4-ylamino)phenyl)propane-1-sulfonamide], the 50% inhibitory concentration (IC50) in assay [1] is more than 3 µM; in assay [2] it was less than 2 µM; in assay [3], less than 0.3 µM; in assay [4], less than 0.3 µM; in assay [5] (given as bound), more than 3 µM; in assay [6], 0.3 to 1 µM.

As to `CCCS(=O)(=O)Nc1ccc(F)c(Nc2ncnc3ccc(-c4cnc(N)nc4)cc23)c1F` [compound 50, N-(3-(6-(2-aminopyrimidin-5-yl)quinazolin-4-ylamino)-2,4-difluorophenyl)propane-1-sulfonamide], the IC50 in assay [1] was more than 3 µM; in assay [2], less than 2 µM; in assay [3], less than 0.3 µM; in assay [4] it was 0.3 to 1 µM; in assay [5] (given as bound), more than 3 µM; in assay [6], 0.3 to 1 µM.

For `CCCS(=O)(=O)Nc1ccc(F)c(Nc2ccnc3ccc(-c4ccncc4)cc23)c1F` [compound 14, N-(2,4-difluoro-3-(6-(pyridin-4-yl)quinolin-4-ylamino)phenyl)propane-1-sulfonamide], the IC50 in assay [1] is more than 3 µM; in assay [2], less than 2 µM; in assay [3], less than 0.3 µM; in assay [4], less than 0.3 µM; in assay [5] (class symbols), 1 to 3 µM; in assay [6] it was less than 0.3 µM.

`CCCS(=O)(=O)Nc1ccc(F)c(Nc2ncnc3ccc(-c4cnc(OC)c([N+](=O)[O-])c4)cc23)c1F` [compound 58, N-(2,4-difluoro-3-(6-(6-methoxy-5-nitropyridin-3-yl)quinazolin-4-ylamino)phenyl)propane-1-sulfonamide]: the IC50 in assay [1] is more than 3 µM; in assay [2] it was less than 2 µM; in assay [3], less than 0.3 µM; in assay [4] it was less than 0.3 µM; in assay [5] (given as bound), more than 3 µM; in assay [6], less than 0.3 µM.

The record behind these values is patent US9321762B2, “Quinazoline compounds, method for preparing the same and use thereof” (DEVELOPMENT CENTER FOR BIOTECHNOLOGY, priority 2013, dated 2016).
